Tests used:
physchem = conditions: buffer
KB cells = test: Cellular data: KB cell viability (Cell titer-glo luminescence); assay type: cell-based; conditions: for EC50: folate free RPMI, 2 h compound incubation, wash, additional 70 h; for % Kill (48 h): percent cell kill at 48 h
Procedure: KB cells in culture were seeded in white clear bottom 96-well tissue culture plate at a density of 5,000 cells per well in a folate free RPMI media with 10% FBS a day prior to compound addition. Cells were counted visually with a hemocytometer and diluted accordingly to obtain the desired density. Cells were allowed to incubate for 24 hours in a humidified CO2 atmosphere in an incubator at 37° C. The spent media was aspirated and replenished with 100 μL of fresh media containing a 3-fold serial dilution of compound with concentrations ranging from 0.3 to 2000 nM and with a final DMSO concentration of 0.1%. Blank wells without compound were also treated with media containing 0.1% DMSO. […] […] At the end of 70 h, the spent media was removed and cells were washed once with fresh media and then suspended 100 μL of PBS. 100 μL of constituted Cell titer-glo reagent was added to each well and luminescence was recorded with a VICTOR plate reader according to manufacturers' protocol.

[1] = Hydrolysis studies of silicon-linker constructs and conjugates (HEPES buffer, UPLC/MS)
[2] = system: Folate receptor alpha expressing KB cells; test: Imaging study demonstrating endocytosis and Si-O cleavage (confocal microscopy); assay type: cell-based; conditions: 50 nM
Procedure: Example 79 as shown above contains a folate receptor targeting ligand, a spacer moiety, a siloxane core and two different fluorescent dyes (BODIPY and rhodamine) positioned on either side of the siloxane core. Folate receptor alpha expressing KB cells were grown in folic acid free media. The cells were incubated for 30 minutes on ice with 50 nM of Example 79, washed with fresh culture medium and then incubated in media at 37° C. for the desired length of time. The fate of both dyes was simultaneously monitored using confocal microscopy using Zeiss LSM 780 laser scanning microscope.

C[Si](C)(C)O[Si](C)(C)CSc1nccc(C(F)(F)F)n1 [Example 28, 2-(((1,1,3,3,3-pentamethyldisiloxanyl)methyl)thio)-4-(trifluoromethyl)pyrimidine]
half-life (physchem; pH 5): > 2 h

CC(=O)NCCC[Si](C)(C)O[Si](C)(C)CCCn1cc(-c2ccccc2)nn1 [Example 69, N-(3-(1,1,3,3-tetramethyl-3-(3-(4-phenyl-1H-1,2,3-triazol-1-yl)propyl)disiloxanyl)propyl)acetamide]
half-life (physchem; pH 5): 4 h
half-life (physchem; pH 7.4): > 6 h

CC(C)C(=O)NCCC[Si](C)(C)O[Si](C)(C)CSc1ncccn1 [Example 34, N-(3-(1,1,3,3-Tetramethyl-3-((pyrimidin-2-ylthio)methyl)disiloxanyl)propyl) isobutyramide]
half-life (physchem; pH 5): 0.0333 h
half-life (physchem; pH 7.4): > 2 h

CCOC(=O)CCC[Si](C)(C)O[Si](C)(C)CCCC(=O)O [Example 7, 4-(3-(4-ethoxy-4-oxobutyl)-1,1,3,3-tetramethyldisiloxanyl)butanoic acid]
half-life (physchem; pH 5): 0.333 h
half-life (physchem; pH 7.4): > 24 h

Cc1ccnc(SC[Si](C)(C)O[Si](C)(C)C)n1 [Example 27, 4-Methyl-2-(((1,1,3,3,3-pentamethyldisiloxanyl)methyl)thio)pyrimidine]
half-life (physchem; pH 5): 0.2 h
half-life (physchem; pH 7.4): > 2 h

C[Si](C)(C)O[Si](C)(C)CS(=O)(=O)c1ncccn1 [Example 10, 2-(((1,1,3,3,3-Pentamethyldisiloxanyl)methyl)sulfonyl)pyrimidine]
half-life (physchem; pH 5): 0.583 h
half-life (physchem; pH 7.4): 0.583 h

CC[C@]1(O)C[C@@H]2C[N@@](CCc3c([nH]c4ccccc34)[C@@](C(=O)OC)(c3cc4c(cc3OC)N(C)[C@H]3[C@@](O)(C(=O)NCCC[Si](C)(C)O[Si](C)(C)CSc5ncc(Cn6cc(COCCOCCOCCOCCOCCOCCNC(=O)CC[C@H](NC(=O)c7ccc(NCc8cnc9nc(N)[nH]c(=O)c9n8)cc7)C(=O)O)nn6)cn5)[C@H](O)[C@]5(CC)C=CCN6CC[C@]43[C@@H]65)C2)C1 [Example 80]
EC50 (KB cells): ~265 nM
% Kill (48 h) (KB cells): 84%
half-life ([1]; pH 5): 0.75 h
half-life ([1]; pH 7.4): 24 h

CC(=O)NCCC[Si](C)(C)O[Si](C)(C)CSc1ncc(Cn2cc(-c3ccccc3)nn2)cn1 [Example 62, N-(3-(1,1,3,3-tetramethyl-3-(((5-((4-phenyl-1H-1,2,3-triazol-1-yl)methyl)pyrimidin-2-yl)thio)methyl)disiloxanyl)propyl)acetamide]
half-life (physchem; pH 5): 0.333 h
half-life (physchem; pH 7.4): > 3 h

CC(=O)NCCC[Si](C)(C)O[Si](C)(C)CSc1ncc(Cn2cc(-c3ccc(COCC(COCc4ccc(-c5cn(Cc6cnc(SC[Si](C)(C)O[Si](C)(C)CCCNC(C)=O)nc6)nn5)cc4)(COCc4ccc(-c5cn(Cc6cnc(SC[Si](C)(C)O[Si](C)(C)CCCNC(C)=O)nc6)nn5)cc4)NC(=O)OC(C)(C)C)cc3)nn2)cn1 [Example 73, tert-butyl(1,3-bis((4-(1-((2-(((3-(3-acetamidopropyl)-1,1,3,3-tetramethyldisiloxanyl)methyl)thio)pyrimidin-5-yl)methyl)-1H-1,2,3-triazol-4-yl)benzyl)oxy)-2-(((4-(1-((2-(((3-(3-acetamidopropyl)-1,1,3,3-tetramethyldisiloxanyl)methyl)thio)pyrimidin-5-yl)methyl)-1H-1,2,3-triazol-4-yl)benzyl)oxy)methyl)propan-2-yl)carbamate]
half-life (physchem; pH 5): 18 h
half-life (physchem; pH 7.4): > 18 h

CC[C@]1(O)C[C@H]2CN(CCc3c([nH]c4ccccc34)[C@@](C(=O)OC)(c3cc4c(cc3OC)N(C)[C@H]3[C@@](O)(C(=O)NCCC[Si](C)(C)O[Si](C)(C)CSc5ncc(COCCOCCOCCn6cc(COCC(COCc7cn(CCOCCOCCOCc8cnc(SC[Si](C)(C)O[Si](C)(C)CCCNC(=O)[C@@]9(O)[C@H](O)[C@]%10(CC)C=CCN%11CC[C@@]%12(c%13cc([C@@]%14(C(=O)OC)C[C@@H]%15CN(CCc%16c%14[nH]c%14ccccc%16%14)C[C@](O)(CC)C%15)c(OC)cc%13N(C)[C@@H]9%12)[C@@H]%11%10)nc8)nn7)(COCc7cn(CCOCCOCCOCc8cnc(SC[Si](C)(C)O[Si](C)(C)CCCNC(=O)[C@@]9(O)[C@H](O)[C@]%10(CC)C=CCN%11CC[C@@]%12(c%13cc([C@@]%14(C(=O)OC)C[C@@H]%15CN(CCc%16c%14[nH]c%14ccccc%16%14)C[C@](O)(CC)C%15)c(OC)cc%13N(C)[C@@H]9%12)[C@@H]%11%10)nc8)nn7)NC(=O)CCOCCOCCOCCOCCOCCOCCNC(=O)CC[C@H](NC(=O)c7ccc(NCc8cnc9nc(N)[nH]c(=O)c9n8)cc7)C(=O)O)nn6)cn5)[C@H](O)[C@]5(CC)C=CCN6CC[C@]43[C@@H]65)C2)C1 (stereo partly shown) [Example 82]
EC50 (KB cells): ~193 nM
% Kill (48 h) (KB cells): 80%
half-life ([1]; pH 5): 1 h
half-life ([1]; pH 7.4): > 24 h

C[Si](C)(C)O[Si](C)(C)CSc1ncccn1 [Example 8, 2-(((1,1,3,3,3-Pentamethyldisiloxanyl)methyl)thio)pyrimidine]
half-life (physchem; pH 5): 0.0833 h
half-life (physchem; pH 7.4): 24 h

C[Si](C)(C)O[Si](C)(C)CSc1cnccn1 [Example 31, 2-(((1,1,3,3,3-pentamethyldisiloxanyl)methyl)thio)pyrazine]
half-life (physchem; pH 5): 0.5 h

C[Si](C)(COc1ncccn1)O[Si](C)(C)COc1ncccn1 [Example 15, 1,1,3,3-Tetramethyl-1,3-bis((pyrimidin-2-yloxy)methyl)disiloxane]
half-life (physchem; pH 5): 0.417 h
half-life (physchem; pH 7.4): > 4 h

CC(=O)NCCC[Si](C)(C)O[Si](C)(C)CSc1ncc(COCCOCCOCCn2cc(COCC(COCc3cn(CCOCCOCCOCc4cnc(SC[Si](C)(C)O[Si](C)(C)CCCNC(C)=O)nc4)nn3)(COCc3cn(CCOCCOCCOCc4cnc(SC[Si](C)(C)O[Si](C)(C)CCCNC(C)=O)nc4)nn3)NC(C)=O)nn2)cn1 [Example 63]
half-life (physchem; pH 5): 1 h
half-life (physchem; pH 7.4): > 18 h

CCN(CC)c1ccc2c(-c3ccc(S(=O)(=O)NCc4cnc(SC[Si](C)(C)O[Si](C)(C)CCCN5C(=O)CC(SC[C@H](NC(=O)[C@H](CNC(=O)CCC6=[N+]7C(=Cc8c(C)cc(C)n8[B-]7(F)F)C=C6)NC(=O)[C@H](CC(=O)O)NC(=O)CC[C@H](NC(=O)c6ccc(NCc7cnc8nc(N)[nH]c(=O)c8n7)cc6)C(=O)O)C(=O)O)C5=O)nc4)cc3S(=O)(=O)[O-])c3ccc(=[N+](CC)CC)cc-3oc2c1 (stereo partly shown) [Example 79]
Cleavage of the siloxane core (color separation of the two fluorescent dyes) ([2]; 37° C., t=30 min): cleavage of the siloxane core was observed
Endocytosis of intact conjugate into the cell ([2]; 37° C., t=30 min): endocytosis of intact Example 79 into the cell was observed
Binding to the folate receptor on the cell surface (colocalization of dyes) ([2]; 30 minutes on ice, t=0): bound to the folate receptor on the cell surface
half-life ([1]; pH 5): 1.67 h
half-life ([1]; pH 7.4): > 18 h

Cc1cc(C)nc(SC[Si](C)(C)O[Si](C)(C)C)n1 [Example 9, 4,6-Dimethyl-2-(((1,1,3,3,3-pentamethyldisiloxanyl)methyl)thio)pyrimidine]
half-life (physchem; pH 5): 0.417 h
half-life (physchem; pH 7.4): 40 h

CC[C@]1(O)C[C@@H]2CN(CCc3c([nH]c4ccccc34)[C@@](C(=O)OC)(c3cc4c(cc3OC)N(C)[C@H]3[C@@](O)(C(=O)NCCC[Si](C)(C)O[Si](C)(C)CSc5ncc(Cn6cc(C[C@H](NC(=O)[C@H](CC(=O)O)NC(=O)[C@H](CC(=O)O)NC(=O)[C@H](CCCNC(=N)N)NC(=O)[C@H](CC(=O)O)NC(=O)CC[C@H](NC(=O)c7ccc(NCc8cnc9nc(N)[nH]c(=O)c9n8)cc7)C(=O)O)C(=O)O)nn6)cn5)[C@H](O)[C@]5(CC)C=CCN6CC[C@]43[C@@H]65)C2)C1 [Example 81]
% Kill (48 h) (KB cells): 86%
half-life ([1]; pH 5): 0.583 h
half-life ([1]; pH 7.4): 24 h

C[Si](C)(CCCC(=O)O)O[Si](C)(C)c1ccccc1 [Example 1, 4-(1,1,3,3-Tetramethyl-3-phenyldisiloxanyl)butanoic acid]
half-life (physchem; pH 5): 1.67 h
half-life (physchem; pH 7.4): > 24 h

CC[C@]1(O)C[C@H]2CN(CCc3c([nH]c4ccccc34)[C@@](C(=O)OC)(c3cc4c(cc3OC)N(C)[C@H]3[C@@](O)(C(=O)NCCC[Si](C)(C)O[Si](C)(C)CSc5ncc(Cn6cc(COCC(COCc7cn(Cc8cnc(SC[Si](C)(C)O[Si](C)(C)CCCNC(=O)[C@@]9(O)[C@H](O)[C@]%10(CC)C=CCN%11CC[C@@]%12(c%13cc([C@@]%14(C(=O)OC)C[C@@H]%15CN(CCc%16c%14[nH]c%14ccccc%16%14)C[C@](O)(CC)C%15)c(OC)cc%13N(C)[C@@H]9%12)[C@@H]%11%10)nc8)nn7)(COCc7cn(Cc8cnc(SC[Si](C)(C)O[Si](C)(C)CCCNC(=O)[C@@]9(O)[C@H](O)[C@]%10(CC)C=CCN%11CC[C@@]%12(c%13cc([C@@]%14(C(=O)OC)C[C@@H]%15CN(CCc%16c%14[nH]c%14ccccc%16%14)C[C@](O)(CC)C%15)c(OC)cc%13N(C)[C@@H]9%12)[C@@H]%11%10)nc8)nn7)NC(=O)CCOCCOCCOCCOCCOCCOCCNC(=O)CC[C@H](NC(=O)c7ccc(NCc8cnc9nc(N)[nH]c(=O)c9n8)cc7)C(=O)O)nn6)cn5)[C@H](O)[C@]5(CC)C=CCN6CC[C@]43[C@@H]65)C2)C1 (stereo partly shown) [Example 83]
half-life ([1]; pH 7.4): > 24 h
